We go through 3 compounds from PMC10453993 (Emerging Microbes & Infections, 2023).

SMILES strings stand for the structures. Read-outs that look alike come from different tables or passages of the source.

The term EC50 denotes the midpoint of the concentration-response curve.

The assay relates to SARS-CoV-2 VOCs. The experiment in a line: microbe, parasite or virus in culture. It counts as cell-based.
[1] abbreviates: Severe acute respiratory syndrome coronavirus 2, read-out: EC50, dsRNA staining.
Setting [2] is: Severe acute respiratory syndrome coronavirus 2, read-out: EC50, nucleocapsid staining.

Turning to `CN(C)c1ccc(N(Cc2cc(Cl)cs2)C(=O)Cc2cncc3ccccc23)cc1` [C5, N-((4-chlorothiophen-2-yl)methyl)-N-(4-(dimethylamino)phenyl)-2-(isoquinolin-4-yl)acetamide], the half-maximal effective concentration (EC50) lay in the range of 200 to 700 nM under setting [1] and 100 to 300 nM under setting [2].

Consider `CN(C)c1ccc(N(Cc2cc(Cl)cs2)C(=O)Cc2cncc3cccc(O)c23)cc1` [C5a, N-((4-chlorothiophen-2-yl)methyl)-N-(4-(dimethylamino)phenyl)-2-(5-hydroxyisoquinolin-4-yl)acetamide], for which the EC50 under setting [1] was in the range of 28 to 95 nM and the EC50 under setting [2] lay within 30 to 69 nM.

In the case of `CC(C)(C)[C@H](NC(=O)C(F)(F)F)C(=O)N1C[C@H]2[C@@H]([C@H]1C(=O)N[C@H](C#N)C[C@@H]1CCNC1=O)C2(C)C` [C7, Nirmatrelvir, reference compound], the half-maximal effective concentration (EC50) by setting is: (Severe acute respiratory syndrome coronavirus 2, Calu-3) 1300 nM; under setting [1], 400 to 700 nM; under setting [2], 300 to 400 nM.
